Counter-ions that a name gives are not always drawn.
Tested on: c-Myc
Test: c-Myc immunofluorescence assay
Assay type: cell-based, human
Conditions: A549 cells, 24 hours treatment, anti-c-Myc immunofluorescence
Procedure: A549 human non-small cell lung carcinoma cells were treated for 24 hours with increasing compound concentration, cells were fixed and stained with a nuclei stain (DAPI) and anti-c-Myc fluorescent antibody. The c-Myc signal was quantified by image analysis, and data was exported and analyzed using TIBCO Spotfire® (TIBCO Corporation). Dose response curves were generated and fitted with logaristic regression to calculate potency (EC50 values). Potency values are presented in Table 2 for all compounds and are shown for selected compounds (FIG. 4).
A549 cells were grown in 384-wells plates (Perkin Elmer, Cat. 6057300) for 48 hours, treated with compounds and then fixed for 20 min in 4% paraformaldehyde. After that permeabilization was done using 0.1% Triton X-100 in PBS for 20 min. Primary anti-c-Myc antibody (Abcam, ab32072) staining was performed for 90 min at room temperature. Cells then were washed twice with PBS and incubated with secondary antibody (Abcam, ab150075) for 90 min at room temperature. Nuclei were stained with DAPI for 10 min and washed twice with PBS.
Cell images were taken with Operetta (Perkin Elmer, USA), a wide-field fluorescence microscope at 20× magnification. After acquisition, the images were transferred to Columbus software (Perkin-Elmer) for image analysis. In Columbus, cells were identified by their nucleus, using the “Find Nuceli” module and cytoplasm was detected based on the secondary antibody channel. Subsequently, the fluorescent signal was enumerated in the identified cell region. Then data was exported to a data analysis and visualization software, Tibco Spotfire, USA.

| SMILES | Myc Efficacy (−LogEC50) |
| --- | --- |
| CO[C@H]1CN[C@@H](c2ccc(-c3cn4c(n3)sc3cc(C(=O)NCCCN5CCC(F)CC5)ccc34)c(F)c2)C1 (relative stereo) [Compound 523, 2-(2-fluoro-4-((cis)-4-methoxypyrrolidin-2-yl)phenyl)-N-(3-(4-fluoropiperidin-1-yl)propyl)benzo[d]imidazo[2,1-b]thiazole-7-carboxamide] | +++ (+++ ≥6) |
| CO[C@H]1CN[C@@H](c2ccc(-c3cn4c(n3)sc3cc(C(=O)NC5CCN(C)CC5)ccc34)c(F)c2)C1 (relative stereo) [Compound 532, 2-(2-fluoro-4-((cis)-4-methoxypyrrolidin-2-yl)phenyl)-N-(1-methylpiperidin-4-yl)benzo[d]imidazo[2,1-b]thiazole-7-carboxamide] | +++ (+++ ≥6) |
| O=C(NC1CCOCC1)c1ccc2c(c1)sc1nc(-c3ccc([C@H]4C[C@@H](O)CN4)cc3F)cn12 (relative stereo) [Compound 533, 2-(2-fluoro-4-((cis)-4-hydroxypyrrolidin-2-yl)phenyl)-N-(tetrahydro-2H-pyran-4-yl)benzo[d]imidazo[2,1-b]thiazole-7-carboxamide] | +++ (+++ ≥6) |
| O=C(NC1CCOCC1)c1ccc2c(c1)sc1nc(-c3ccc([C@H]4C[C@H](O)CN4)cc3F)cn12 (relative stereo) [Compound 538, 2-(2-fluoro-4-((trans)-4-hydroxypyrrolidin-2-yl)phenyl)-N-(tetrahydro-2H-pyran-4-yl)benzo[d]imidazo[2,1-b]thiazole-7-carboxamide] | +++ (+++ ≥6) |
| CNC(=O)c1ccc2c(c1)sc1nc(-c3ccc([C@H]4C[C@H](O)CN4)cc3F)cn12 (relative stereo) [Compound 544, 2-(2-fluoro-4-((trans)-4-hydroxypyrrolidin-2-yl)phenyl)-N-methylbenzo[d]imidazo[2,1-b]thiazole-7-carboxamide] | +++ (+++ ≥6) |
| O=C(N[C@@H]1CCOC1)c1ccc2c(c1)sc1nc(-c3ccc(C4CCCN4)cc3F)cn12 (stereo partly drawn) [524R, 2-(2-fluoro-4-(pyrrolidin-2-yl)phenyl)-N-((R)-tetrahydrofuran-3-yl)benzo[d]imidazo[2,1-b]thiazole-7-carboxamide] | ++ (++ ≥5 and <6) |
| O=C(N[C@H]1CCOC1)c1ccc2c(c1)sc1nc(-c3ccc(C4CCCN4)cc3F)cn12 (stereo partly drawn) [524S, 2-(2-fluoro-4-(pyrrolidin-2-yl)phenyl)-N-((S)-tetrahydrofuran-3-yl)benzo[d]imidazo[2,1-b]thiazole-7-carboxamide] | ++ (++ ≥5 and <6) |
| O=C(NCCCN1CCC(F)CC1)c1ccc2c(c1)sc1nc(-c3ccc([C@H]4CCCO4)cc3F)cn12 [Compound 428R, (R)-2-(2-fluoro-4-(tetrahydrofuran-2-yl)phenyl)-N-(3-(4-fluoropiperidin-1-yl)propyl)benzo[d]imidazo[2,1-b]thiazole-7-carboxamide] | ++ (++ ≥5 and <6) |
| O=C(NCCCN1CCC(F)CC1)c1ccc2c(c1)sc1nc(-c3ccc([C@@H]4CCCO4)cc3F)cn12 [Compound 428S, (S)-2-(2-fluoro-4-(tetrahydrofuran-2-yl)phenyl)-N-(3-(4-fluoropiperidin-1-yl)propyl)benzo[d]imidazo[2,1-b]thiazole-7-carboxamide] | +++ (+++ ≥6) |
| O=C1CC[C@H](c2ccc(-c3cn4c(n3)sc3cc(C(=O)NCCCN5CCC(F)CC5)ccc34)c(F)c2)N1 [Compound 432R, (R)-2-(2-fluoro-4-(5-oxopyrrolidin-2-yl)phenyl)-N-(3-(4-fluoropiperidin-1-yl)propyl)benzo[d]imidazo[2,1-b]thiazole-7-carboxamide] | +++ (+++ ≥6) |
| O=C1CC[C@@H](c2ccc(-c3cn4c(n3)sc3cc(C(=O)NCCCN5CCC(F)CC5)ccc34)c(F)c2)N1 [Compound 432S, (S)-2-(2-fluoro-4-(5-oxopyrrolidin-2-yl)phenyl)-N-(3-(4-fluoropiperidin-1-yl)propyl)benzo[d]imidazo[2,1-b]thiazole-7-carboxamide] | +++ (+++ ≥6) |
| O=C(NCCCN1CCC(F)CC1)c1ccc2c(c1)sc1nc(-c3ccc([C@H]4CCNC4)cc3F)cn12 [Compound 434R, (R)-2-(2-fluoro-4-(pyrrolidin-3-yl)phenyl)-N-(3-(4-fluoropiperidin-1-yl)propyl)benzo[d]imidazo[2,1-b]thiazole-7-carboxamide] | +++ (+++ ≥6) |
| O=C(NCCCN1CCC(F)CC1)c1ccc2c(c1)sc1nc(-c3ccc([C@@H]4CCNC4)cc3F)cn12 [Compound 434S, (S)-2-(2-fluoro-4-(pyrrolidin-3-yl)phenyl)-N-(3-(4-fluoropiperidin-1-yl)propyl)benzo[d]imidazo[2,1-b]thiazole-7-carboxamide] | +++ (+++ ≥6) |
| Cc1c(-c2ccc([C@H]3CCCN3)cc2F)nc2sc3cc(C(=O)NCCCN4CCC(F)CC4)ccc3n12 [Compound 464R, (R)-2-(2-fluoro-4-(pyrrolidin-2-yl)phenyl)-N-(3-(4-fluoropiperidin-1-yl)propyl)-3-methylbenzo[d]imidazo[2,1-b]thiazole-7-carboxamide dihydrochloride] | +++ (+++ ≥6) |
| Cc1c(-c2ccc([C@@H]3CCCN3)cc2F)nc2sc3cc(C(=O)NCCCN4CCC(F)CC4)ccc3n12 [Compound 464S, (S)-2-(2-fluoro-4-(pyrrolidin-2-yl)phenyl)-N-(3-(4-fluoropiperidin-1-yl)propyl)-3-methylbenzo[d]imidazo[2,1-b]thiazole-7-carboxamide dihydrochloride] | +++ (+++ ≥6) |
| NC1(c2ccc(-c3cn4c(n3)sc3cc(C(=O)NCCCN5CCC(F)CC5)ccc34)c(F)c2)CC1 [Compound 474, 2-(4-(1-aminocyclopropyl)-2-fluorophenyl)-N-(3-(4-fluoropiperidin-1-yl)propyl)benzo[d]imidazo[2,1-b]thiazole-7-carboxamide] | +++ (+++ ≥6) |
| O=C(NCCCN1CCC(F)CC1)c1ccc2c(c1)sc1nc(-c3ccc(C4CCCN4)c(F)c3F)cn12 (centres unmarked) [Compound 476, 2-(2,3-difluoro-4-(pyrrolidin-2-yl)phenyl)-N-(3-(4-fluoropiperidin-1-yl)propyl)benzo[d]imidazo[2,1-b]thiazole-7-carboxamide] | +++ (+++ ≥6) |
| O=C(NCCCN1CCC(F)CC1)c1ccc2c(c1)sc1nc(-c3ccc(C4CCNC4)cc3F)cn12 (centres unmarked) [Compound 479, 2-(2-fluoro-4-(pyrrolidin-3-yl)phenyl)-N-(3-(4-fluoropiperidin-1-yl)propyl)benzo[d]imidazo[2,1-b]thiazole-7-carboxamide] | +++ (+++ ≥6) |
| O=C(NCCCN1CCC(F)CC1)c1ccc2c(c1)sc1nc(-c3ccc(C4CCCCN4)cc3F)cn12 (centres unmarked) [Compound 480, 2-(2-fluoro-4-(piperidin-2-yl)phenyl)-N-(3-(4-fluoropiperidin-1-yl)propyl)benzo[d]imidazo[2,1-b]thiazole-7-carboxamide] | +++ (+++ ≥6) |
| O=C(NCCCN1CCC(F)CC1)c1ccc2c(c1)sc1nc(-c3ccc(C4COCCN4)cc3F)cn12 (centres unmarked) [Compound 481, 2-(2-fluoro-4-(morpholin-3-yl)phenyl)-N-(3-(4-fluoropiperidin-1-yl)propyl)benzo[d]imidazo[2,1-b]thiazole-7-carboxamide] | +++ (+++ ≥6) |
| O=C(NCCCN1CCC(F)CC1)c1ccc2c(c1)sc1nc(-c3ccc(-c4nc[nH]n4)cc3F)cn12 [Compound 483, 2-(2-fluoro-4-(1H-1,2,4-triazol-3-yl)phenyl)-N-(3-(4-fluoropiperidin-1-yl)propyl)benzo[d]imidazo[2,1-b]thiazole-7-carboxamide] | +++ (+++ ≥6) |
| O=C(NCCCN1CCC(F)CC1)c1ccc2c(c1)sc1nc(-c3ccc(C4CCCN4)c(F)c3)cn12 (centres unmarked) [Compound 484, 2-(3-fluoro-4-(pyrrolidin-2-yl)phenyl)-N-(3-(4-fluoropiperidin-1-yl)propyl)benzo[d]imidazo[2,1-b]thiazole-7-carboxamide] | +++ (+++ ≥6) |
| O=C(NCCCN1CCC(F)CC1)c1ccc2c(c1)sc1nc(-c3ccc(C4CC(F)(F)CN4)cc3F)cn12 (centres unmarked) [Compound 490, 2-(4-(4,4-difluoropyrrolidin-2-yl)-2-fluorophenyl)-N-(3-(4-fluoropiperidin-1-yl)propyl)benzo[d]imidazo[2,1-b]thiazole-7-carboxamide] | +++ (+++ ≥6) |
| CN1CCC[C@@H](NC(=O)c2ccc3c(c2)sc2nc(-c4ccc(C5CCCN5)cc4F)cn23)C1 (stereo partly drawn) [Compound 491R, 2-(2-fluoro-4-(pyrrolidin-2-yl)phenyl)-N—((R)-1-methylpiperidin-3-yl)benzo[d]imidazo[2,1-b]thiazole-7-carboxamide] | +++ (+++ ≥6) |
| CN1CCC[C@H](NC(=O)c2ccc3c(c2)sc2nc(-c4ccc(C5CCCN5)cc4F)cn23)C1 (stereo partly drawn) [Compound 491S, 2-(2-fluoro-4-(pyrrolidin-2-yl)phenyl)-N—((S)-1-methylpiperidin-3-yl)benzo[d]imidazo[2,1-b]thiazole-7-carboxamide] | +++ (+++ ≥6) |
| NC(=O)c1ccc2c(c1)sc1nc(-c3ccc(C4CCCN4)cc3F)cn12 (centres unmarked) [Compound 492, 2-(2-fluoro-4-(pyrrolidin-2-yl)phenyl)benzo[d]imidazo[2,1-b]thiazole-7-carboxamide] | +++ (+++ ≥6) |

From US12404283B2, “c-MYC mRNA translation modulators and uses thereof in the treatment of cancer” (Anima Biotech Inc., priority 2022, dated 2025)
